The assay deals with L1210 leukemia ip in BDF1 mice, survival T/C. The assay is described as follows: NCI In Vivo Anticancer Drug Screen. Data for tumor model L1210 Leukemia (intraperitoneal) in B6D2F1 (BDF1) mice. Particulars: endpoint: mean survival time, higher = longer survival. The gist of the method: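 Antitumor effect is assessed in tumor-bearing animals. Survival in the compound arm is compared with a vehicle-dosed control arm and expressed as their quotient.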

Setting [1] is: dose: 100.0 mg/kg/injection, schedule: Q01DX009 (ip), vehicle: Klucel (hydroxypropylcellulose) (HPC).
[2] abbreviates: dose: 200.0 mg/kg/injection, schedule: Q01DX009 (ip), vehicle: Klucel (hydroxypropylcellulose) (HPC).
[3] abbreviates: dose: 400.0 mg/kg/injection, schedule: Q01DX009 (ip), vehicle: Klucel (hydroxypropylcellulose) (HPC).
Setting [4] is: dose: 50.0 mg/kg/injection, schedule: Q01DX001 (ip), vehicle: carboxymethylcellulose (CMC).
[5] abbreviates: dose: 100.0 mg/kg/injection, schedule: Q01DX001 (ip), vehicle: carboxymethylcellulose (CMC).
The mark [6] stands for this setting: dose: 200.0 mg/kg/injection, schedule: Q01DX001 (ip), vehicle: carboxymethylcellulose (CMC).
Where [7] appears, read: dose: 400.0 mg/kg/injection, schedule: Q01DX001 (ip), vehicle: carboxymethylcellulose (CMC).
Setting [8] is: dose: 50.0 mg/kg/injection, schedule: Q01DX009 (ip), vehicle: saline.
The mark [9] stands for this setting: dose: 100.0 mg/kg/injection, schedule: Q01DX001 (ip), vehicle: saline with Tween-80.
Setting [10] is: dose: 200.0 mg/kg/injection, schedule: Q01DX001 (ip), vehicle: saline with Tween-80.
Setting [11] is: dose: 100.0 mg/kg/injection, schedule: Q04DX003 (ip), vehicle: saline.
Where [12] appears, read: dose: 200.0 mg/kg/injection, schedule: Q04DX003 (ip), vehicle: saline.
The mark [13] stands for this setting: dose: 400.0 mg/kg/injection, schedule: Q04DX003 (ip), vehicle: saline.
[14] abbreviates: dose: 75.0 mg/kg/injection, schedule: Q01DX001 (ip), vehicle: carboxymethylcellulose (CMC).
Setting [15] is: dose: 150.0 mg/kg/injection, schedule: Q01DX001 (ip), vehicle: carboxymethylcellulose (CMC).
[16] abbreviates: dose: 300.0 mg/kg/injection, schedule: Q01DX001 (ip), vehicle: carboxymethylcellulose (CMC).
Where [17] appears, read: dose: 150.0 mg/kg/injection, schedule: Q01DX009 (ip), vehicle: Klucel (hydroxypropylcellulose) (HPC).

Here are results for 21 compounds from PubChem BioAssay AID248 (DTP/NCI, 2004).

Values joined by “and” are separate entries in the source; they are usually repeats but may differ in a detail not shown here. Equal values may be shown once. Toxic doses and inconclusive results are not listed.

In the case of `O=C(Nc1cccc(F)c1)Nc1cccc([N+](=O)[O-])c1`, the T/C runs as follows: under setting [1], 102 % of control; under setting [2], 102 % of control; under setting [3], 97 % of control.

With `O=C(c1ccccc1)c1cccc(Cl)c1`, the T/C runs as follows: (dose: 50.0 mg/kg/injection, schedule: Q01DX009 (ip), vehicle: Klucel (hydroxypropylcellulose) (HPC)) 105 % of control; (dose: 100.0 mg/kg/injection, schedule: Q01DX001 (ip), vehicle: saline) 98 % of control; under setting [1], 101 % of control; (dose: 200.0 mg/kg/injection, schedule: Q01DX001 (ip), vehicle: saline) 96 % of control; under setting [2], 100 % of control; (dose: 400.0 mg/kg/injection, schedule: Q01DX001 (ip), vehicle: saline) 93 % of control.

For the compound `Nc1nc(Cl)nc2c1ncn2C1CC(O)C(CO)O1` (configuration not stated), the T/C was 118 % of control (dose: 44.4 mg/kg/injection, schedule: Q01DX001 (ip), vehicle: carboxymethylcellulose (CMC)); 109 % of control under setting [4]; 112 % of control (dose: 66.6 mg/kg/injection, schedule: Q01DX001 (ip), vehicle: carboxymethylcellulose (CMC)); 109 % of control and 118 % of control under setting [5]; 120 % of control and 124 % of control under setting [6]; 102 % of control under setting [7].

Consider `Cc1ccc(S(=O)(=O)/C=C\S(=O)(=O)c2ccc(C)cc2)cc1`, for which the T/C by setting is: (dose: 12.5 mg/kg/injection, schedule: Q01DX009 (ip), vehicle: saline) 98 % of control; (dose: 25.0 mg/kg/injection, schedule: Q01DX009 (ip), vehicle: saline) 105 % of control; (dose: 25.0 mg/kg/injection, schedule: Q04DX003 (ip), vehicle: acetone) 92 % of control; under setting [8], 86 % of control; (dose: 50.0 mg/kg/injection, schedule: Q04DX003 (ip), vehicle: acetone) 100 % of control; (dose: 100.0 mg/kg/injection, schedule: Q01DX001 (ip), vehicle: acetone) 90 % of control.

For `COc1ccc(CSc2ncnc3nc[nH]c23)cc1`, the T/C is, setting by setting: (dose: 6.0 mg/kg/injection, schedule: Q01DX015 (ip), vehicle: carboxymethylcellulose (CMC)) 92 % of control; (dose: 12.0 mg/kg/injection, schedule: Q01DX015 (ip), vehicle: carboxymethylcellulose (CMC)) 91 % of control; (dose: 25.0 mg/kg/injection, schedule: Q01DX015 (ip), vehicle: carboxymethylcellulose (CMC)) 101 % of control; (dose: 50.0 mg/kg/injection, schedule: Q01DX015 (ip), vehicle: carboxymethylcellulose (CMC)) 101 % of control; (dose: 200.0 mg/kg/injection, schedule: Q01DX015 (ip), vehicle: carboxymethylcellulose (CMC)) 111 % of control.

With `CCCCCCCCCCCC(=O)N1CCCCC1`, the T/C is 101 % of control under setting [9]; 97 % of control under setting [10]; 89 % of control (dose: 400.0 mg/kg/injection, schedule: Q01DX001 (ip), vehicle: saline with Tween-80).

On to `c1ccc2cc3sccc3cc2c1`, for which the T/C under setting [1] is 96 % of control, the T/C under setting [2] was 95 % of control and the T/C under setting [3] is 93 % of control.

For the compound `CCOC(=O)CC#N`, the T/C under setting [11] is 103 % of control, the T/C under setting [12] is 103 % of control and the T/C under setting [13] was 102 % of control.

With `CN(C)c1ccc(/C=N/NC(N)=S)nc1`, the T/C runs as follows: (dose: 5.0 mg/kg/injection, schedule: Q03HX032 (ip), vehicle: saline with Tween-80) 116 % of control; (dose: 12.0 mg/kg/injection, schedule: Q03HX032 (ip), vehicle: saline with Tween-80) 158 % of control; (dose: 18.0 mg/kg/injection, schedule: Q03HX032 (ip), vehicle: saline with Tween-80) 188 % of control and 320 % of control; (dose: 19.0 mg/kg/injection, schedule: Q04DX003 (ip), vehicle: saline with Tween-80) 110 % of control; (dose: 44.0 mg/kg/injection, schedule: Q04DX003 (ip), vehicle: saline with Tween-80) 162 % of control; (dose: 67.0 mg/kg/injection, schedule: Q04DX003 (ip), vehicle: saline with Tween-80) 118 % of control. Under “dose: 200.0 mg/kg/injection, schedule: Q04DX003 (ip), vehicle: saline with Tween-80”, the T/C was 113 % of control.

In the case of `CCCCCCCCCCCC(=O)Nc1cc(Cl)c(OC)cc1OC`, the T/C by setting is: under setting [1], 95 % of control; under setting [2], 92 % of control; under setting [3], 93 % of control.

With `CCCn1c(=O)cc(C)c2ccccc21`, the T/C (dose: 100.0 mg/kg/injection, schedule: Q01DX001 (ip), vehicle: other) was 105 % of control; the T/C (dose: 200.0 mg/kg/injection, schedule: Q01DX001 (ip), vehicle: other) was 90 % of control; the T/C (dose: 400.0 mg/kg/injection, schedule: Q01DX001 (ip), vehicle: other) was 91 % of control.

Take `C[N+]1(CCC[N+]2(C)CC3CCCCC3C2)CCOCC1` (configuration not stated): the T/C was 99 % of control under setting [11], 96 % of control under setting [12] and 105 % of control under setting [13].

On to `CCc1[nH]c(=O)nc2[nH]c3ccccc3c12`, for which the T/C is 90 % of control (dose: 100.0 mg/kg/injection, schedule: Q04DX002 (ip), vehicle: Klucel (hydroxypropylcellulose) (HPC)); 93 % of control (dose: 200.0 mg/kg/injection, schedule: Q04DX002 (ip), vehicle: Klucel (hydroxypropylcellulose) (HPC)); 97 % of control (dose: 400.0 mg/kg/injection, schedule: Q04DX002 (ip), vehicle: Klucel (hydroxypropylcellulose) (HPC)).

Take `CC1=C(Br)C(=O)C(C)=C(Br)C1=O`: the T/C was 95 % of control (dose: 25.0 mg/kg/injection, schedule: Q04DX003 (ip), vehicle: other); 87 % of control (dose: 50.0 mg/kg/injection, schedule: Q04DX003 (ip), vehicle: other); 100 % of control (dose: 100.0 mg/kg/injection, schedule: Q04DX003 (ip), vehicle: other).

With `C=CCNC(=S)Nc1ncn[nH]1`, the T/C under setting [14] was 103 % of control, the T/C under setting [15] is 104 % of control and the T/C under setting [16] was 90 % of control.

With `NC1CC2CCC1C2` (configuration not stated), the T/C was 98 % of control (dose: 50.0 mg/kg/injection, schedule: Q01DX001 (ip), vehicle: saline with Tween-80); 93 % of control (dose: 50.0 mg/kg/injection, schedule: Q04DX002 (ip), vehicle: saline); 98 % of control under setting [9]; 100 % of control (dose: 100.0 mg/kg/injection, schedule: Q04DX002 (ip), vehicle: saline); 103 % of control under setting [10].

For `CC1=CC(C)C(=O)N(C)C(C)=C1` (configuration not stated), the T/C was 97 % of control under setting [14], 91 % of control under setting [15] and 92 % of control under setting [16].

For the compound `O=C(O)/C(=C\c1cc2c(cc1[N+](=O)[O-])OCO2)c1cc2c(cc1Br)OCO2`, the T/C was 97 % of control under setting [4], 100 % of control under setting [5], 103 % of control under setting [6] and 92 % of control under setting [7].

On to `Cc1ccc(S(=O)(=O)OCC23CC4C5CC2C3(COS(=O)(=O)c2ccc(C)cc2)CC54)cc1`, for which the T/C is 95 % of control (dose: 75.0 mg/kg/injection, schedule: Q01DX009 (ip), vehicle: Klucel (hydroxypropylcellulose) (HPC)); 98 % of control under setting [17]; 93 % of control (dose: 300.0 mg/kg/injection, schedule: Q01DX009 (ip), vehicle: Klucel (hydroxypropylcellulose) (HPC)).

Turning to `CC(C)Nc1nc(Cl)nc(NC(C)C)n1`, the T/C runs as follows: under setting [17], 101 % of control; (dose: 200.0 mg/kg/injection, schedule: Q04DX003 (ip), vehicle: Klucel (hydroxypropylcellulose) (HPC)) 96 % of control; (dose: 225.0 mg/kg/injection, schedule: Q01DX009 (ip), vehicle: Klucel (hydroxypropylcellulose) (HPC)) 94 % of control; (dose: 335.0 mg/kg/injection, schedule: Q01DX009 (ip), vehicle: Klucel (hydroxypropylcellulose) (HPC)) 94 % of control; (dose: 400.0 mg/kg/injection, schedule: Q04DX003 (ip), vehicle: Klucel (hydroxypropylcellulose) (HPC)) 94 % of control.

Regarding `CCCCCOC(=O)CCCc1ccc(N(CCCl)CCCl)cc1`, the T/C under setting [8] was 123 % of control and the T/C (dose: 100.0 mg/kg/injection, schedule: Q01DX009 (ip), vehicle: saline) is 86 % of control.
